Like-named read-outs stand apart in the source and are kept apart here.
Key:
Experiment in all cases: selectivity profiling in a panel of 340 wild-type kinases (Reaction Biology Europe)
Type in all cases: binding
[1] = target: T1, 340 wild-type kinases (Homo sapiens, UniProt Q00526)
T1 construct: purchased Reaction Biology Europe

[2] = target: T2, 340 wild-type kinases (Homo sapiens, UniProt Q9HC98)
T2 construct: purchased Reaction Biology Europe

[3] = target: T3, 340 wild-type kinases (Homo sapiens, UniProt Q9Y243)
T3 construct: purchased Reaction Biology Europe

[4] = target: T4, 340 wild-type kinases (Homo sapiens, UniProt Q05655)
T4 construct: purchased Reaction Biology Europe

[5] = target: T5, 340 wild-type kinases (Homo sapiens, UniProt Q9BYP7)
T5 construct: purchased Reaction Biology Europe

[6] = target: T6, 340 wild-type kinases (Homo sapiens, UniProt P41279)
T6 construct: purchased Reaction Biology Europe

[7] = target: T7, 340 wild-type kinases (Homo sapiens, UniProt Q9UHD2)
T7 construct: purchased Reaction Biology Europe
T7 sequence (Q9UHD2 1-729): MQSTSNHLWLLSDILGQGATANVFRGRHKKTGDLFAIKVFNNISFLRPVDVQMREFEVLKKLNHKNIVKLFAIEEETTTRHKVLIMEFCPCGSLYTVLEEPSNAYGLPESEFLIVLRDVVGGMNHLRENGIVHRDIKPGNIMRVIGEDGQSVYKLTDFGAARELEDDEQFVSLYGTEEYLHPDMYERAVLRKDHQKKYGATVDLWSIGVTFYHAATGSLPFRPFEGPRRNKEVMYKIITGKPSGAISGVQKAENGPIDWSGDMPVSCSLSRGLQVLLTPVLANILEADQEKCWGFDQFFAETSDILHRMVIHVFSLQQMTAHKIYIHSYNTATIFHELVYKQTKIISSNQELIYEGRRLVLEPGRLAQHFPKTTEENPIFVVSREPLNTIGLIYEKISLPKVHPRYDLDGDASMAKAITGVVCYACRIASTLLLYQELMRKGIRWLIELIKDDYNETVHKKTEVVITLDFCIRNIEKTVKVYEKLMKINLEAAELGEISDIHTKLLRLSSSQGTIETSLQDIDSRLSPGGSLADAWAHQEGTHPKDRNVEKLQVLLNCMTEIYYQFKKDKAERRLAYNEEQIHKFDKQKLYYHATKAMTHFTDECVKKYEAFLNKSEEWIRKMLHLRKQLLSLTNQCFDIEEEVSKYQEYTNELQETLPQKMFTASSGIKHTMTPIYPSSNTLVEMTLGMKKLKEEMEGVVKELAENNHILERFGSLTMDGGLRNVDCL

[8] = target: T8, 340 wild-type kinases (Homo sapiens, UniProt P51955)
T8 construct: purchased Reaction Biology Europe
T8 sequence (P51955 1-445): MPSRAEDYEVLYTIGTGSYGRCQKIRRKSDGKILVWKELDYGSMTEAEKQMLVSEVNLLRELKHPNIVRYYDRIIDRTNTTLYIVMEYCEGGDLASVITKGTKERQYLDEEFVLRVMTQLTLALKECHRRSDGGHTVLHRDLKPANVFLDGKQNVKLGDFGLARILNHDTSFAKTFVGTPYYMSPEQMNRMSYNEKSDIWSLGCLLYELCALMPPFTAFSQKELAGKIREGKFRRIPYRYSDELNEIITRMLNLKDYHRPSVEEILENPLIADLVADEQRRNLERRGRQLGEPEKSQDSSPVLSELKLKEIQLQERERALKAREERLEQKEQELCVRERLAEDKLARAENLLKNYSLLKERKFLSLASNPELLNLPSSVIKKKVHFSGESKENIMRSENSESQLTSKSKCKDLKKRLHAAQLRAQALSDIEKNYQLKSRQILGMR

T5 sequence (Q9BYP7 whole entry): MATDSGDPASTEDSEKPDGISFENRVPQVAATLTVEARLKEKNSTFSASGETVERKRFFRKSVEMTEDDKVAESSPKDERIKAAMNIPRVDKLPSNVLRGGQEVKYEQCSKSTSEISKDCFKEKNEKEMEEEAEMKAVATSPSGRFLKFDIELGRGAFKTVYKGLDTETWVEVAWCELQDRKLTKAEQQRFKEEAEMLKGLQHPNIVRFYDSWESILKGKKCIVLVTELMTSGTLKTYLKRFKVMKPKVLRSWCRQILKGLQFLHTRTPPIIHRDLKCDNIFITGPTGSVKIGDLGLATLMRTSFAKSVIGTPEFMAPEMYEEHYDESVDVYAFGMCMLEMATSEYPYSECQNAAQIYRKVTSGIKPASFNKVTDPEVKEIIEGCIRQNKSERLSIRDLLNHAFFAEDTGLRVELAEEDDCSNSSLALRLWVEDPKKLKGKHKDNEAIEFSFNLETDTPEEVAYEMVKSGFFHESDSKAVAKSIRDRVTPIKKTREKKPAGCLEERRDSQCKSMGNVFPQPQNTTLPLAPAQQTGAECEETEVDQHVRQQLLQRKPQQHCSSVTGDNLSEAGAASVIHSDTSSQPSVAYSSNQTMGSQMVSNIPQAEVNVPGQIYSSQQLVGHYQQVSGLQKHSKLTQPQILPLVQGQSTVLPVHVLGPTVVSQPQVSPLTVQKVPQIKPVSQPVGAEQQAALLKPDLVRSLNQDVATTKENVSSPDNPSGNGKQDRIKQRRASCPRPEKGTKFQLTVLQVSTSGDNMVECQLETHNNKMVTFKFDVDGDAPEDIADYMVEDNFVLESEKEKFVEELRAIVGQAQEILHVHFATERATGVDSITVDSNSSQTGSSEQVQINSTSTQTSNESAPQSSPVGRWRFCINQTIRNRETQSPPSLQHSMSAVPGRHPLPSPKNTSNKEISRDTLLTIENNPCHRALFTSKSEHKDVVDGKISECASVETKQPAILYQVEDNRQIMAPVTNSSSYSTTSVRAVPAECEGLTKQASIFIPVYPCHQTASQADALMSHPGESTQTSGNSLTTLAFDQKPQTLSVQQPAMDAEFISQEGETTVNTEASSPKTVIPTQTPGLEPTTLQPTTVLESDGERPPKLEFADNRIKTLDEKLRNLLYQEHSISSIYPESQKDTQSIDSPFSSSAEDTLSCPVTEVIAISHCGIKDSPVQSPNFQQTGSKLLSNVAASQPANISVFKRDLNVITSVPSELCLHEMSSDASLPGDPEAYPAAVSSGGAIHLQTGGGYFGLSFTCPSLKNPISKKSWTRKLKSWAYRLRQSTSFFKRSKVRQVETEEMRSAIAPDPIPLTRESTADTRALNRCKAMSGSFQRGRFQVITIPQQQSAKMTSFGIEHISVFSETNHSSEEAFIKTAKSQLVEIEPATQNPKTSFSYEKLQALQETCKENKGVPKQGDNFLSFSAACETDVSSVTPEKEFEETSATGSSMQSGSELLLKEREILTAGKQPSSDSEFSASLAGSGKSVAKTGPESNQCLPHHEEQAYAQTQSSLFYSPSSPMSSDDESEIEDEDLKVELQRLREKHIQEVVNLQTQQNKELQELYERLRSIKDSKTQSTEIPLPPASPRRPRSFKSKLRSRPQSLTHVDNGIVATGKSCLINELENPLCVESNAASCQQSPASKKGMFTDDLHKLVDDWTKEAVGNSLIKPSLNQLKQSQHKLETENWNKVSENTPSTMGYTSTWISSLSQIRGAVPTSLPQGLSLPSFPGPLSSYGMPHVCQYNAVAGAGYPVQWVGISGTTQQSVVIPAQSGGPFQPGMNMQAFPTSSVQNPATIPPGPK
T3 sequence (Q9Y243 whole entry): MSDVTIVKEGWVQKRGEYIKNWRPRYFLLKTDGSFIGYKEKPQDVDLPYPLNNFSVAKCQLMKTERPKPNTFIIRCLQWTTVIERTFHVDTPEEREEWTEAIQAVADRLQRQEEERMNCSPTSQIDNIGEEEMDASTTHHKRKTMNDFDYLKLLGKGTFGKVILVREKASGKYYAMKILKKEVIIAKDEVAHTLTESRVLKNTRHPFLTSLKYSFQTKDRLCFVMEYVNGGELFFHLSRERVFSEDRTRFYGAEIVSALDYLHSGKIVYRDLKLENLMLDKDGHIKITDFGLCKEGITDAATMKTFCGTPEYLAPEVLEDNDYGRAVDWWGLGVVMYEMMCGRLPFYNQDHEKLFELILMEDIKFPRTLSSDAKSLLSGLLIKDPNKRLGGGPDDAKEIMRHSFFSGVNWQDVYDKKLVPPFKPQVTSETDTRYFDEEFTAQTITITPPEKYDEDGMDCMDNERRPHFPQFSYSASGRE
T2 sequence (Q9HC98 whole entry): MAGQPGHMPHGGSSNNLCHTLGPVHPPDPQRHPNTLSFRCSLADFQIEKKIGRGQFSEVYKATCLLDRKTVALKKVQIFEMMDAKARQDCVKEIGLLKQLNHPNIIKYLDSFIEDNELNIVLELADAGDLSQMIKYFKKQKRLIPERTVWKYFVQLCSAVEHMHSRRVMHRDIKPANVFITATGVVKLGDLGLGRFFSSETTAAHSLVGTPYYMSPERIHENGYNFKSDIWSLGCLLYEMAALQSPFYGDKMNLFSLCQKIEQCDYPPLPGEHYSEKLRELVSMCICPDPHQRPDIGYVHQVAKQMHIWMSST
T6 sequence (P41279 whole entry): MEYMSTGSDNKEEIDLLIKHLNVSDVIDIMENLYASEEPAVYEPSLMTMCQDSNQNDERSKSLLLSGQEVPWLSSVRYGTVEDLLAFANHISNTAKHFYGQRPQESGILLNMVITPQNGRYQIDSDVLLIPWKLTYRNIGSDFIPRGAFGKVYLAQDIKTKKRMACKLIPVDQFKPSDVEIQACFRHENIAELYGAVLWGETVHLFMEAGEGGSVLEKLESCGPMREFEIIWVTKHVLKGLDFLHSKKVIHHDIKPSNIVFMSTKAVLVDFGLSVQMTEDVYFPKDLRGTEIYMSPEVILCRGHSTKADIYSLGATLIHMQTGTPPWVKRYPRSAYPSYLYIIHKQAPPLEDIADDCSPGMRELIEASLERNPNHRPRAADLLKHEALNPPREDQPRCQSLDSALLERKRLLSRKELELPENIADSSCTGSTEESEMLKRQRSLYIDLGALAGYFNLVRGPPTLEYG
T1 sequence (Q00526 whole entry): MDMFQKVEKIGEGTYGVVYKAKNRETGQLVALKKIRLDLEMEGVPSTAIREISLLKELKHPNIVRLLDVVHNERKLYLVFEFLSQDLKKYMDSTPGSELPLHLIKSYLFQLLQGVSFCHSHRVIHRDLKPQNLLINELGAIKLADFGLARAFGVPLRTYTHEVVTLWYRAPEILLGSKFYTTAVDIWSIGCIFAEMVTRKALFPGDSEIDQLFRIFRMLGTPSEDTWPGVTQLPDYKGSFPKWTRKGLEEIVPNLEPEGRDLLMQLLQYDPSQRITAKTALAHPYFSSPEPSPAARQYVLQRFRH
T4 sequence (Q05655 whole entry): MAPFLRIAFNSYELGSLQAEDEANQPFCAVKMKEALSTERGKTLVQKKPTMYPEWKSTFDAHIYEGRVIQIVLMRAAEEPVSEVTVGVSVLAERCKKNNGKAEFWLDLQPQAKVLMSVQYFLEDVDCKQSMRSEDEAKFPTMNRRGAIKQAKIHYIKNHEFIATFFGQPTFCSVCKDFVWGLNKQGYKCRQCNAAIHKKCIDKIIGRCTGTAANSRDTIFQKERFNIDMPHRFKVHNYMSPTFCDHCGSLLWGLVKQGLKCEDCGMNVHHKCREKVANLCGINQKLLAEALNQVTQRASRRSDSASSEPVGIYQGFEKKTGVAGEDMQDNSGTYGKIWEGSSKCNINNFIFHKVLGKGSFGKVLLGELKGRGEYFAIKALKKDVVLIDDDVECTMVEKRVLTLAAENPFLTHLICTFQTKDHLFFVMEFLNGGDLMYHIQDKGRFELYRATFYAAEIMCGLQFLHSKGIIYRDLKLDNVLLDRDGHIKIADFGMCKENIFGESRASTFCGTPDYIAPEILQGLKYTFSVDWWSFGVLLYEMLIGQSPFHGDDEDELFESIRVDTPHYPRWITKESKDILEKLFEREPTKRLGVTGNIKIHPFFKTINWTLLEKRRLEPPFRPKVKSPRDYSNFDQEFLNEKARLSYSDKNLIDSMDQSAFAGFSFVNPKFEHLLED

SMILES: CNC(=O)c1ccc2c(c1)C(=O)c1ccc(Nc3ccc(F)c(NC(=O)C4CC4)c3)cc1CC2 [Compound 2015]
- remaining activity at 0.2 µM ([1]; 0.2 µM 2015, read-out: CDK3/CycC residual activity): 104%
- remaining activity at 0.2 µM ([1]; 0.2 µM 2015, read-out: CDK3/CycE1 residual activity): 88.9%
- remaining activity at 1 µM ([1]; 1 µM 2015, read-out: CDK3/CycC residual activity): 96.3%
- remaining activity at 1 µM ([1]; 1 µM 2015, read-out: CDK3/CycE1 residual activity): 81.7%
- remaining activity at 0.2 µM ([1]; CDK3/CycC, 0.2 µM, read-out: residual activity): 104%
- remaining activity at 1 µM ([1]; CDK3/CycC, 1 µM, read-out: residual activity): 96.3%
- remaining activity at 0.2 µM ([1]; CDK3/CycE1, 0.2 µM, read-out: residual activity): 88.9%
- remaining activity at 1 µM ([1]; CDK3/CycE1, 1 µM, read-out: residual activity): 81.7%
- remaining activity at 0.2 µM ([2]; 0.2 µM 2015, read-out: NEK6 residual activity): 95.6%
- remaining activity at 1 µM ([2]; 1 µM 2015, read-out: NEK6 residual activity): 99.3%
- remaining activity at 0.2 µM ([2]; NEK6, 0.2 µM, read-out: residual activity): 95.6%
- remaining activity at 1 µM ([2]; NEK6, 1 µM, read-out: residual activity): 99.3%
- remaining activity at 0.2 µM ([3]; 0.2 µM 2015, read-out: AKT3 residual activity): 96%
- remaining activity at 1 µM ([3]; 1 µM 2015, read-out: AKT3 residual activity): 89.5%
- remaining activity at 0.2 µM ([3]; AKT3, 0.2 µM, read-out: residual activity): 96%
- remaining activity at 1 µM ([3]; AKT3, 1 µM, read-out: residual activity): 89.5%
- remaining activity at 0.2 µM ([4]; 0.2 µM 2015, read-out: PKCdelta residual activity): 95.6%
- remaining activity at 1 µM ([4]; 1 µM 2015, read-out: PKCdelta residual activity): 97%
- remaining activity at 0.2 µM ([4]; PKCdelta, 0.2 µM, read-out: residual activity): 95.6%
- remaining activity at 1 µM ([4]; PKCdelta, 1 µM, read-out: residual activity): 97%
- remaining activity at 0.2 µM ([5]; 0.2 µM 2015, read-out: WNK3 residual activity): 121%
- remaining activity at 1 µM ([5]; 1 µM 2015, read-out: WNK3 residual activity): 113%
- remaining activity at 0.2 µM ([5]; WNK3, 0.2 µM, read-out: residual activity): 121%
- remaining activity at 1 µM ([5]; WNK3, 1 µM, read-out: residual activity): 113%
- remaining activity at 0.2 µM ([6]; 0.2 µM 2015, read-out: COT residual activity): 98.6%
- remaining activity at 1 µM ([6]; 1 µM 2015, read-out: COT residual activity): 97.4%
- remaining activity at 0.2 µM ([6]; COT, 0.2 µM, read-out: residual activity): 98.6%
- remaining activity at 1 µM ([6]; COT, 1 µM, read-out: residual activity): 97.4%
- remaining activity at 0.2 µM ([7]; 0.2 µM 2015, read-out: TBK1 residual activity): 120%
- remaining activity at 1 µM ([7]; 1 µM 2015, read-out: TBK1 residual activity): 101%
- remaining activity at 0.2 µM ([7]; TBK1, 0.2 µM, read-out: residual activity): 120%
- remaining activity at 1 µM ([7]; TBK1, 1 µM, read-out: residual activity): 101%
- remaining activity at 0.2 µM ([8]; 0.2 µM 2015, read-out: NEK2 residual activity): 104%
- remaining activity at 1 µM ([8]; 1 µM 2015, read-out: NEK2 residual activity): 95%
- remaining activity at 0.2 µM ([8]; NEK2, 0.2 µM, read-out: residual activity): 104%
- remaining activity at 1 µM ([8]; NEK2, 1 µM, read-out: residual activity): 95%

From publication PMC11864979, “First-in-class ultralong-target-residence-time p38α inhibitors as a mitosis-targeted therapy for colorectal cancer” (Nature Cancer, 2025)
